Activity calls are given as the source filed them. The rule behind the calls is not given here.
Key:
[1] = Inhibition of baker's yeast alpha-glucosidase using p-nitrophenyl-alpha-D-glucopyranoside as substrate after 30 mins by spectrophotometric analysis; set-up: species or system Saccharomyces cerevisiae
Saccharomyces cerevisiae [2] = test: Competitive inhibition of baker's yeast alpha-glucosidase using p-nitrophenyl-alpha-D-glucopyranoside as substrate at 1 to 2 uM preincubated for 30 mins followed by substrate addition by Lineweaver-Burk plot analysis
Saccharomyces cerevisiae [3] = test: Potency index, ratio of acarbose IC50 to compound IC50 for baker's yeast alpha-glucosidase
Saccharomyces cerevisiae [4] = test: Competitive inhibition of baker's yeast alpha-glucosidase using p-nitrophenyl-alpha-D-glucopyranoside as substrate at 1.5 to 2 uM preincubated for 30 mins followed by substrate addition by Lineweaver-Burk plot analysis
Saccharomyces cerevisiae [5] = test: Mixed-type inhibition of baker's yeast alpha-glucosidase using p-nitrophenyl-alpha-D-glucopyranoside as substrate at 4 to 6 uM preincubated for 30 mins followed by substrate addition by Lineweaver-Burk plot analysis

SMILES | IC50 [1] [µM] | further results
COc1ccc(-c2coc3c(C/C=C(\C)CCC=C(C)C)c(OC)cc(OC)c3c2=O)cc1 | > 100 | 
CC(C)=CCC/C(C)=C/Cc1cc(C(=O)/C=C/c2ccc(O)cc2)c(O)c(C/C=C(\C)CCC=C(C)C)c1O | 0.9 | inhibition (Saccharomyces cerevisiae [2]): Active; Ratio IC50 (Saccharomyces cerevisiae [3]): 50
CC(C)=CCC/C(C)=C/Cc1cc(C(=O)/C=C/c2ccc(O)cc2)c(O)cc1O | 16.3 | 
CC(C)=CCC/C(C)=C/Cc1c(O)cc(O)c2c(=O)c(O)c(-c3ccc(O)c(O)c3)oc12 | 1.15 | inhibition (Saccharomyces cerevisiae [4]): Active
O=c1c(O)c(-c2ccc(O)c(O)c2)oc2cc(O)cc(O)c12 [QUERCETIN] | 11 | 
O=c1c(-c2ccc(O)cc2)coc2cc(O)cc(O)c12 [GENISTEIN] | 50.1 | 
CC(C)=CCc1cc(C(=O)/C=C/c2ccc(O)cc2)c(O)cc1O [BROUSSOCHALCONE B] | 5.3 | 
CC(C)=CCc1cc(C(=O)/C=C/c2ccc(O)cc2)c(O)c(CC=C(C)C)c1O [MEDICAGENIN] | 6.9 | 
C[C@H]1O[C@H](O[C@H]2[C@H](O)[C@@H](O)[C@@H](O[C@H]3[C@H](O)[C@@H](O)C(O)O[C@@H]3CO)O[C@@H]2CO)[C@H](O)[C@@H](O)[C@@H]1N[C@H]1C=C(CO)[C@@H](O)[C@H](O)[C@H]1O (stereo partly drawn) [ACARBOSE] | 51.3 | 
O=C(/C=C/c1ccc(O)cc1)c1ccc(O)cc1O [ISOLIQUIRITIGENIN] | > 100 | 
COc1ccc(-c2coc3c(CC=C(C)C)c(OC)cc(OC)c3c2=O)cc1 | > 100 | 
COc1ccc(/C=C/C(=O)c2cc(CC=C(C)C)c(OC)cc2OC)cc1 | > 100 | 
CC(C)=CCc1c(O)cc(O)c2c(=O)c(-c3ccc(O)cc3)coc12 | > 100 | 
CC(C)=CCC/C(C)=C/Cc1cc(C(=O)/C=C/c2ccc(O)cc2)c(O)c(CC=C(C)C)c1O | 9 | 
COc1ccc(-c2coc3c(CC=C(C)C)c(OC)cc(O)c3c2=O)cc1 | > 100 | 
CC(C)=CCC/C(C)=C/Cc1c(O)c(CC=C(C)C)cc(C(=O)/C=C/c2ccc(O)cc2)c1O | 11.5 | 
COc1ccc(-c2coc3c(C/C=C(\C)CCC=C(C)C)c(OC)cc(O)c3c2=O)cc1 | > 100 | 
CC(C)=CCc1c(O)cc(O)c2c(=O)c(O)c(-c3ccc(O)c(O)c3)oc12 | 4.38 | 
CC(C)=CCC/C(C)=C/Cc1c(O)cc(O)c2c(=O)c(-c3ccc(O)cc3)coc12 | 6.26 | inhibition (Saccharomyces cerevisiae [5]): Active
